According to paper PMC6539809, “Development of Oxygen-Bridged Pyrazole-Based Structures as Cannabinoid Receptor 1 Ligands” (Molecules, 2019):

Experiments:
obese mice = tested on: obese mice; parameters: method as in PMID 23756200; conditions: chronic treatment of obese mice; cited from earlier work
[1] = target: T1, CB1Rs of mouse vas deferens (Mus musculus, UniProt P47746); assay: Isolated organ assay: electrically evoked contractions of mouse vas deferens; conditions: for Kb: read-out: Antagonist potency pA2 (converted)
T1 construct: naturally expressed prejunctional neuronal CB1Rs; from tissue; host or cells: isolated vas deferens of male albino CD1 mice
T1 sequence (P47746 whole entry): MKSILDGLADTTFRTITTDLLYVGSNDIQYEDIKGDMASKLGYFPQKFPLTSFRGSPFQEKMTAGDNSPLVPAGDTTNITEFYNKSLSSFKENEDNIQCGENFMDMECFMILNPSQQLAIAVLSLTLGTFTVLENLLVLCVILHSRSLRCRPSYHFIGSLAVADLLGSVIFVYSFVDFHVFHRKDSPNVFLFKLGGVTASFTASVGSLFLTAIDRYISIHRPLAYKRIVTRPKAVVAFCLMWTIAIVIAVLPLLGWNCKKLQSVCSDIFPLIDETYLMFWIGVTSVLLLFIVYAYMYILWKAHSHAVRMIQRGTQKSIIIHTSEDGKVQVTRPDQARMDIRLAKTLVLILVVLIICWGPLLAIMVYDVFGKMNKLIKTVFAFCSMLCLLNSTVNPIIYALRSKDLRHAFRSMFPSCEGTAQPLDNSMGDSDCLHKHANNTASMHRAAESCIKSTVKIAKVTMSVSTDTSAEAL
Experimental: Vas deferens was obtained from male albino CD1 mice weighing 30 to 40 g. Tissue was mounted in a 10 mL organ bath at an initial tension of 0.5 g using a previously described method [16]. The bath contained Krebs-Henseleit solution (118.2 mM NaCl, 4.75 mM KCl, 1.19 mM KH2PO4, 25.0 mM NaHCO3, 11.0 mM glucose, and 2.54 mM CaCl2), which was kept at 37 °C and bubbled with 95% O2 and 5% CO2. Isometric contractions were evoked by stimulation with 0.5 sec trains of three pulses of 110% maximal voltage (train frequency, 0.1 Hz; pulse duration, 0.5 msec) through platinum electrodes attached to the upper end of each bath and a stainless-steel electrode attached to the lower end. Stimuli were generated using a Grass S88K stimulator and then amplified (multiplexing pulse booster 316S; Ugo Basile, Comerio, Italy) and divided to yield separate outputs to four organ baths. Contractions were monitored using a computer equipped with a data recording and analysis system (PowerLab 400) linked via preamplifiers (QuadBridge) to an F10 transducer (Biological Instruments, Besozzo, Italy). Each tissue was subject to several periods of stimulation. […] The stimulator was then switched off for 15 min, after which the tissues were subjected to further periods of stimulation each lasting 5 min and separated by a stimulation-free period. The compounds to be assayed were added once the contractile responses to electrical stimulation were reproducible. Preparations were exposed to cumulative increasing concentrations of the compounds to obtain concentration-response curves in the case of CB1 agonist (and partial agonist) compounds. […] Inhibition of the electrically evoked twitch response was expressed in percentage terms and was calculated by comparing the amplitude of the twitch response after each addition of the agonist compound (alone or in the presence of a potential CB1 antagonist) with the amplitude detected in absence of the compounds to be assayed (basal value). The pA2 values for competitive antagonism were calculated by Schild regression analysis [37]. Data were plotted as log antagonist concentration versus log [(antagonist concentration/agonist concentration)-1].

[2] = parameters: method as in PMID 23756200; conditions: cited from earlier work
CB2 receptor = target: T2, CB2 receptor (Mus musculus, UniProt P47936); conditions: [3H]-CP-55,940, mouse spleen homogenate; lead compound; read-out: KiCB2; cited from earlier work
T2 construct: from tissue; host or cells: mouse (CD1) spleen, membrane homogenate
T2 sequence (P47936 whole entry): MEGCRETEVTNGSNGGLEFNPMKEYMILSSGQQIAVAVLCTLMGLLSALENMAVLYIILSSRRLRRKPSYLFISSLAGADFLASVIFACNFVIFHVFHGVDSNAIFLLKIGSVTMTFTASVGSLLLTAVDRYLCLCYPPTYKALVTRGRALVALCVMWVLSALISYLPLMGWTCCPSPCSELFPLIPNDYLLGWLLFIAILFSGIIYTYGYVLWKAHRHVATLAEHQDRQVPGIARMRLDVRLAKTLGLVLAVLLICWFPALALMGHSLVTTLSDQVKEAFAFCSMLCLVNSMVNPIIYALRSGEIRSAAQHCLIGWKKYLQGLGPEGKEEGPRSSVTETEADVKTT

C57Bl6/J mice = assay: Acute food intake in fasted mice; assay type: in vivo, mouse; conditions: for Food intake effect over time: 10 mg/kg i.p., at 2 h and 3 h; for Activity on food intake compared to rimonabant: dose of 10 mg/kg i.p.
Experimental: To further evaluate the potential application of these CB1 antagonists in the control of food intake and in obesity treatment, compound 1b was preliminarily tested in comparison with SR141716A in an acute in vivo assay using C57Bl6/J mice. The evaluation was carried out according to the animal model previously reported by Di Marzo [19].
It is well known that CB1Rs mediate the hyperphagic effect of cannabinoids. […] To test the potential anti-obesity effect of the new CB1 antagonist 1b we performed food intake experiments according to the acute animal model described by Di Marzo [19]. For a comparison we also reported the results concerning the assumed lead compound of this new series, derivative 1a.
A widely described method was used for the screening of the new CB1 antagonists in the food intake animal model. C57Bl6/J mice weighing 20–25 g were housed individually on a reverse light-dark cycle in a room with temperature and humidity control. The mice were fasted for 18 h before testing. Vehicle or CB1 antagonists were administered by an intraperitoneal injection and 15 min later a known amount of food was presented. Food pellets were weighed after each hour for three hours. Rimonabant was used as internal positive control in order to evaluate the efficacy of each compound. All animal experiments were performed according to the UE (CEE N° 86/609) guidelines for the care and use of experimental animals.
Two-way ANOVA with Bonferroni post-testing was performed using GraphPad Prism version 5.00 for Windows (GraphPad Software, San Diego CA, USA).

CB1 receptor = target: T3, CB1 receptor (Mus musculus, UniProt P47746); conditions: [3H]-CP 55,940, mouse brain (minus cerebellum) homogenate; lead compound; read-out: KiCB1; cited from earlier work
T3 construct: from tissue; host or cells: mouse (CD1) brain minus cerebellum, membrane homogenate
T3 sequence (P47746 whole entry): as the sequence (P47746 whole entry) above

[3] = tested on: ventral tegmental area (VTA) dopamine neurons projecting to the NAc shell; parameters: method as in PMID 27521837; conditions: i.v. administration of high doses; cited from earlier work
[4] = tested on: P-ERK 1/2 expression in mouse neuroblastoma N1E-115 cells (CB1Rs); assay: P-ERK 1/2 expression in N1E-115 cells (Western blot); assay type: cell-based; conditions: 5 min pre-treatment with compound (150–200 nM; 1b 200 nM), then WIN 55,212-2 25 nM for 10 min
Experimental: Agonist or antagonist activity of the new derivatives towards CB1Rs were assayed through in vitro testing based on the determination of phosphorylated ERK 1/2 (P-ERK 1/2) expression in a mouse neuroblastoma N1E-115 cell line. As previously reported, this cell line expresses CB1Rs but not CB2Rs; moreover, it has been shown that the exposure of N1E-115 cells to the cannabinoid agonists arachidonyl-2-chloroethylamide (ACEA) and WIN 55-212,2 induces a rapid phosphorylation and activation of the ERK 1/2. The addition of CB1 antagonists as SR141716A abolishes the response induced by the cannabinoid agonists.
N1E-115 cells were grown at 37 °C in humidified 5% CO2 in Dulbecco’s Modified Eagle’s Medium (high glucose supplemented with 10% fetal bovine serum (FBS), 1 μg/mL penicillin-streptomycin, 2 mM L-glutamine, 2.5 μg/mL amphotericin B and 50 μg/mL gentamicin). […] Tested and reference compounds were dissolved in Dulbecco’s phosphate buffered saline (D-PBS) with 1% DMSO and treatments were performed in a volume of 10 μL/mL of cell suspension.
P-ERK 1/2 expression was determined through Western blot analysis according to the previously reported procedure. One-way ANOVA was performed as a statistical analysis using the Graph Pad Prism program (San Diego, CA, USA).
The same procedure was adopted to determine CB1 specific antagonism for compounds which had no effect on P-ERK 1/2 expression themselves. In these last cases, WIN55,212-2 at 25 nM as a reference cannabinoid agonist agent and the new CB1 antagonists at 150–200 nM were employed.

CD1 mice = assay: Gastrointestinal transit (GIT), carmine marker; assay type: in vivo, mouse
From the text: The mouse isolated vas deferens is a nerve-smooth muscle preparation that serves as a highly sensitive and quantitative functional in vitro bioassay for cannabinoid CB1R agonists. The effect of CB1 agonists is related to the action on naturally expressed prejunctional neuronal CB1Rs to inhibit release of the contractile neurotransmitters, noradrenaline and ATP, which is provoked by electrical stimulation. It has been shown that CB1 antagonist derivatives are able to block or reduce the inhibition of the electrically evoked contraction amplitude of the vas deferens induced by CB1 agonists, with parallel dextral shifts in CB1R agonist log concentration-response curves in electrically stimulated tissues. According to previous studies concerning cannabinoid agents, a gastrointestinal transit test was adopted to confirm CB1 antagonism. […] Moreover, the capability of CB1 antagonist compounds both to block the constipation effect induced by cannabinoid agonists and to themselves increase themselves gastrointestinal motility has been reported.
The same procedure previously reported by Murineddu et al. was adopted to evaluate the effect of the compounds on GIT. CD1 mice weighing 30–35 g were used. Carmine (Sigma Chemical Co, St. Louis, MO, USA) was suspended (6% wt/v) in distilled water containing 0.5% methylcellulose and administered by gavage at the dose of 0.3 mL/mouse. Briefly, after 20 min from carmine administration, mice were sacrificed by cervical dislocation and the stomach and small intestine were removed and the omentum was separated, avoiding stretching. The length of the intestine was measured starting from the pyloric sphincter to the ileocecal junction. The distance travelled by the head of the marker was measured and expressed as a percent of the total length of the small intestine. Using this procedure, the marker was consistently found at approximately 50% of the small intestine, 20 min after its administration to naive mice.
20 min later, mice were killed by dislocation cervical and intestines were removed. […] The length of the intestine from the pyloric sphincter to the ileocecal junction and the distance travelled by the carmine front were both measured and recorded. Groups of n = 10 mice were used in each experiment.
Statistical analyses were performed by one-way ANOVA followed by Newman-Keuls post-hoc comparison.

rats = tested on: rats; parameters: method as in PMID 27521837; conditions: i.p. dose of 0.125 mg/kg; cited from earlier work

SMILES	Food intake and body weight on chronic treatment (obese mice)	Kb [1]	Blood-brain barrier (BBB) permeability [2]	Ki (CB2 receptor)	Food intake effect over time (C57Bl6/J mice)	Activity on food intake compared to rimonabant (C57Bl6/J mice)	Ki (CB1 receptor)	Change of electrically-evoked contractions versus basal response, compound alone ([1]; up to a concentration of 10^−6 M, 30 min incubation)	Effect on the WIN-55,212-2 action on VTA dopamine neuron activity [3]	Observable side effects / behavioural effects (C57Bl6/J mice; 20 mg/kg (highest assayed dosage))	Food intake compared to vehicle (C57Bl6/J mice; starting from a dose of 3 mg/kg i.p., fasted mice)	Counteraction of the WIN 55,212-2-induced increase of P-ERK 1/2 expression [4]	Increase in gastrointestinal transit in comparison to vehicle-treated mice (CD1 mice; 0.5–1.0 mg/kg i.p.)	Effect on GIT in combination with WIN 55,212-2 (CD1 mice; WIN 55,212-2 0.5 mg/kg i.p.)	Food intake and body weight (rats)
O=C(NN1CCCCC1)c1nn(-c2ccc(Cl)cc2Cl)c2c1CCOc1cc(Cl)ccc1-2 [Compound 1a, 8-chloro-1-(2,4-dichlorophenyl)-N-piperidin-1-yl-4,5-dihydrobenzo-1H-6-oxa-cyclohepta[1,2-c]pyrazole-3-carboxamide]	reduction of food intake and body weight	7.94 nM	poor	> 5000 nM	still markedly decreased food intake	Significant increments of the activity	10.3 ± 0.41 nM								
O=C(NC1CCCCC1)c1nn(-c2ccc(Cl)cc2Cl)c2c1CCOc1cc(Cl)ccc1-2 [Compound 1b]		0.794 nM		3725 ± 25 nM	still markedly decreased food intake	Significant increments of the activity	40 ± 7 nM	No agonist activity	reverted the effect of the agonist WIN-55,212-2	absence of observable side effects	significantly reduced food intake	CB1 antagonist activity	65–70%	significantly blocked	reduced both food intake and body weight
